We go through one molecule from article PMC6639804 (The Biochemical journal, 2018).

In this assay the target is T1, Cnx1E (Arabidopsis thaliana, UniProt Q39054).
T1 sequence (Q39054 1-452): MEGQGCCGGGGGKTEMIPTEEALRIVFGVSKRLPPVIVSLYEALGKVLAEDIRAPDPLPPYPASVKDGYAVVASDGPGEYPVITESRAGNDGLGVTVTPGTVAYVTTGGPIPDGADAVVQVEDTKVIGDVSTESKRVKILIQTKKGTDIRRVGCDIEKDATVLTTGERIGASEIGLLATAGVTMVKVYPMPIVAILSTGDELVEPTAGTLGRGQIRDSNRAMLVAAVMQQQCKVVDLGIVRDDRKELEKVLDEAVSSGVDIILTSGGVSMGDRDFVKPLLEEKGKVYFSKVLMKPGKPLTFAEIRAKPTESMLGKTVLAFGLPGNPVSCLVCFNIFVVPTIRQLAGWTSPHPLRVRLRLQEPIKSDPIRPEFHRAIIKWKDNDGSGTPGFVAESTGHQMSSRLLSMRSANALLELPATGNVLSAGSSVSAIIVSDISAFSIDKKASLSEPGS
The assay is described as follows: co-purified ligand, FormA-based HPLC. It counts as binding. Conditions: co-purified from E. coli RK5206, not added; phosphodiesterase I treated sample.

On to `Nc1nc2c(c(=O)[nH]1)N[C@H]1C(S)=C(S)[C@@H](COP(=O)(O)OP(=O)(O)OC[C@H]3O[C@@H](n4cnc5c(N)ncnc54)[C@H](O)[C@@H]3O)O[C@H]1N2` [MPT-AMP], for which the binding stoichiometry was 0.0136 +/− 0.0048.
